Where “and” joins values, the source holds several entries; their conditions need not be identical. Identical values can stand only once.

Data set [1] relates to multiple myeloma cell line H929 xenograft. To be noted: for growth inhibition rate (GIR (%)) versus untreated group (Vehicle): Day 17, NK cells 1×10^7 cells i.v. ×3, Velcade and Darzalex 0.5 mg/kg i.p. ×5. How it is done: In a xenograft animal model using NOD.Cg-Prkdcscid Il2rgtm1Wj1/SzJ (NSG) mouse (Jackson Laboratory, Jax #00557 strain), the anticancer efficacy of BCMA-CAR NK cells expressing BCMA-CAR1 was evaluated.
After subcutaneous implantation of multiple myeloma cell line H929 with high BCMA expression, when the tumor size reached 150 mm^3 (10 days post implantation), 5 mice were randomly assigned to each group, and once every 5 days, BCMA-CAR NK cells or control NK cells (NKvec) were administered at a concentration of 1×10^7 cells via intravenous tail vein injection (i.v.) in a total of 3 administrations. Here, a proteasome inhibitor, Velcade® (ingredient name: Bortezomib) and an antibody medication, Darzalex® (ingredient name: Daratumumab) being used as treatment medications for multiple myeloma patients were used as control drugs, and Velcade® (Vel) and Darzalex® (Dara) were each administered at a concentration of 0.5 mg/kg via intraperitoneal (i.p.) route, once every 3-4 days, in a total of 5 administrations.

The target in data set [2] is BCMA expressed on multiple myeloma cells (H929, MM1.R, OPM-2) (UniProt Q02223). The data set is described as follows: cell-based or functional assay.
UniProt Q02223, sequence (Q02223 whole entry): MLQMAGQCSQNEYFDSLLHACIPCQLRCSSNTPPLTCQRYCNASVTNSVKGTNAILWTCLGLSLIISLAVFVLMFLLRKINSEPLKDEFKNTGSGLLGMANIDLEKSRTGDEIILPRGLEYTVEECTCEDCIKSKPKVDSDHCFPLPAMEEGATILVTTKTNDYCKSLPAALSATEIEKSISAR

Take `CC(C)C[C@H](NC(=O)[C@H](Cc1ccccc1)NC(=O)c1cnccn1)B(O)O` [Velcade, Bortezomib]: the “growth inhibition rate (GIR (%)) versus untreated group (Vehicle)” value in data set [1] came out at 39%. Moreover, the “toxicity (body weight)” value in data set [1] (mouse, in vivo) is on record as “toxicity i.e., a decrease in body weight”.
As for Daratumumab [Darzalex], in data set [1], the “growth inhibition rate (GIR (%)) versus untreated group (Vehicle)” value came to 23%.

B1: BCMA-CAR3 (protein)
chain: EVQLLESGGGLVQPGGSLRLSCAASGFTFSDYGLSWVRQAPGKGLEWVSLIDSSGSSTFYADSVKGRFTISRDNSKNTLYLQMNSLRAEDTAVYYCAKEHGLFDSWGQGTLVTVSSGSTSGSGKPSGEGSTKGEIVLTQSPGTLSLSPGERATLSCKASQDIDDDINWYQQKPGQAPRLLIYDASLRATGIPDRFSGSGSGTDFTLTISRLEPEDFAVYYCQQSLRTPITFGQGTKLEIKRALSNSIMYFSHFVPVFLPAKPTTTPAPRPPTPAPTIASQPLSLRPEASRPAAGGAVHTRGLDKPFWVLVVVGGVLACYSLLVTVAFIIFWVRSKRSRLLHSDYMNMTPRRPGPTRKHYQPYAPPRDFAAYRSGGGGSKRGRKKLLYIFKQPFMRPVQTTQEEDGCSCRFPEEEEGGCELGGGGSRVKFSRSADAPAYQQGQNQLYNELNLGRREEYDVLDKRRGRDPEMGGKPRRKNPQEGLYNELQKDKMAEAYSEIGMKGERRRGKGHDGLYQGLSTATKDTYDALHMQALPPR
B1: the cytolytic activity toward multiple myeloma cells (H929, MM1.R, OPM-2), versus control NK cells (NKvec) in data set [2] is 3 to 4 times and > 4 times.

B2: BCMA-CAR4 (protein)
chain: EVQLLESGGGLVQPGGSLRLSCAASGFTFSGHYWSWVRQAPGKGLEWVSTVSGSGGDTFYADSVKGRFTISRDNSKNTLYLQMNSLRAEDTAVYYCARGHSVMDVWGQGTLVTVSSGSTSGSGKPSGEGSTKGEIVLTQSPGTLSLSPGERATLSCRASQGIDSYVAWYQQKPGQAPRLLIYDASLRATGIPDRFSGSGSGTDFTLTISRLEPEDFAVYYCQQYNSWPITFGQGTKLEIKRALSNSIMYFSHFVPVFLPAKPTTTPAPRPPTPAPTIASQPLSLRPEASRPAAGGAVHTRGLDKPFWVLVVVGGVLACYSLLVTVAFIIFWVRSKRSRLLHSDYMNMTPRRPGPTRKHYQPYAPPRDFAAYRSGGGGSKRGRKKLLYIFKQPFMRPVQTTQEEDGCSCRFPEEEEGGCELGGGGSRVKFSRSADAPAYQQGQNQLYNELNLGRREEYDVLDKRRGRDPEMGGKPRRKNPQEGLYNELQKDKMAEAYSEIGMKGERRRGKGHDGLYQGLSTATKDTYDALHMQALPPR
In the case of B2, the cytolytic activity toward multiple myeloma cells (H929, MM1.R, OPM-2), versus control NK cells (NKvec) in data set [2] was 3 to 4 times and > 4 times.

B3: BCMA-CAR2 (protein)
chain: EVQLLESGGGLVQPGGSLRLSCAASGFTFSNYGVHWVRQAPGKGLEWVSYISYSGGTYYNPSLKSRFTISRDNSKNTLYLQMNSLRAEDTAVYYCARDSDDFGFDYWGQGTLVTVSSGSTSGSGKPSGEGSTKGQSVLTQPPSASGTPGQRVTISCQGDSLRSYYVNWYQQLPGTAPKLLIYDHSKRPTGVPDRFSGSKSGTSASLAISGLRSEDEADYYCQSYDSSTVVFGGGTKLTVLGALSNSIMYFSHFVPVFLPAKPTTTPAPRPPTPAPTIASQPLSLRPEASRPAAGGAVHTRGLDKPFWVLVVVGGVLACYSLLVTVAFIIFWVRSKRSRLLHSDYMNMTPRRPGPTRKHYQPYAPPRDFAAYRSGGGGSKRGRKKLLYIFKQPFMRPVQTTQEEDGCSCRFPEEEEGGCELGGGGSRVKFSRSADAPAYQQGQNQLYNELNLGRREEYDVLDKRRGRDPEMGGKPRRKNPQEGLYNELQKDKMAEAYSEIGMKGERRRGKGHDGLYQGLSTATKDTYDALHMQALPPR
In the case of B3, the cytolytic activity toward multiple myeloma cells (H929, MM1.R, OPM-2), versus control NK cells (NKvec) in data set [2] is 3 to 4 times and > 4 times.

These data come from patent US20230114854A1, “CHIMERIC ANTIGEN RECEPTOR TARGETING B-CELL MATURATION ANTIGEN AND USE THEREOF” (CELLGENTEK CO., LTD., priority 2020, published 2023).
